{
  "source": "ChEMBL document CHEMBL3132769",
  "about": "“Fragment growing to retain or alter the selectivity of anchored kinase hinge-binding fragments” (Medchemcomm, 2014)",
  "key": {"[1]": {"biological_target": "Protein kinase C alpha type (Homo sapiens) (UniProt P17252)", "assay": "Inhibition of human truncated PKC alpha expressed in baculovirus assessed as substrate phosphorylation using fluorescence-labelled peptides as substrate at 95 uM after 90 mins by microfluidic peptide phosphorylation assay"}, "[2]": {"biological_target": "Ribosomal protein S6 kinase alpha-3 (Homo sapiens) (UniProt P51812)", "sequence (P51812 whole entry)": "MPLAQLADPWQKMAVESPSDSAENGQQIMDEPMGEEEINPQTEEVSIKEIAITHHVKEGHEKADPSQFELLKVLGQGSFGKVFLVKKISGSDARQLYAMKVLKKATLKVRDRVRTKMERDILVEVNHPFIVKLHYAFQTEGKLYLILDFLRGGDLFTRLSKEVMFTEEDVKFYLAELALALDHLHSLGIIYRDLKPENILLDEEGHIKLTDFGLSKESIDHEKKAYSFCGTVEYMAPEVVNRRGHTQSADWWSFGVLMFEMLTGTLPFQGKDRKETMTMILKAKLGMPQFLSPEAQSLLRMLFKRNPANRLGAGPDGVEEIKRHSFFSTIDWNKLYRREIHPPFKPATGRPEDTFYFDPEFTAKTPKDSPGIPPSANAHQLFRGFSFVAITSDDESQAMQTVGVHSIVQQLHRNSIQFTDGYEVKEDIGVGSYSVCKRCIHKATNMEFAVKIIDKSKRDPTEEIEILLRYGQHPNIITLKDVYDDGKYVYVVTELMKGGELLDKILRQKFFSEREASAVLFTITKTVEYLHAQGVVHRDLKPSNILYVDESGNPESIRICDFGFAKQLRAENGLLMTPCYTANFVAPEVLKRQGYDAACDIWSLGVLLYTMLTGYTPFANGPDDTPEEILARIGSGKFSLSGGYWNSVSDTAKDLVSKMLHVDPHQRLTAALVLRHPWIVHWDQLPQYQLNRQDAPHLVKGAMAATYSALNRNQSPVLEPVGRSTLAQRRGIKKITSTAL", "assay": "Inhibition of human full length RSK2 expressed in baculovirus assessed as substrate phosphorylation using fluorescence-labelled peptides as substrate at 0.2 uM after 90 mins by microfluidic peptide phosphorylation assay"}, "[3]": {"biological_target": "T1, Testis-specific serine/threonine-protein kinase 2 (Homo sapiens) (UniProt Q96PF2)", "T1 sequence (whole entry)": "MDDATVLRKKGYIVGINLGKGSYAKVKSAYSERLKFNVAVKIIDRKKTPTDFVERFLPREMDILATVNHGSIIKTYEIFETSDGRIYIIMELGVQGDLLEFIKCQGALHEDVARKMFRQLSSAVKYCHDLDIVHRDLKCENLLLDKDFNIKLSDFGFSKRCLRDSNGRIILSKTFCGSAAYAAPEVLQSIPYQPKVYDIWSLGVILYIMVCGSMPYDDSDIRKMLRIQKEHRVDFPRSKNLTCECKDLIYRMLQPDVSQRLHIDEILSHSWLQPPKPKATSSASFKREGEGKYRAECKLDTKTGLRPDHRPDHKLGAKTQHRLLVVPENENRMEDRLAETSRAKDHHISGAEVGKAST", "assay": "Inhibition of human full length TSSK2 expressed in baculovirus assessed as substrate phosphorylation using fluorescence-labelled peptides as substrate at 0.2 uM after 90 mins by microfluidic peptide phosphorylation assay"}, "[4]": {"biological_target": "T2, Serine/threonine-protein kinase Sgk3 (Homo sapiens) (UniProt Q96BR1)", "T2 sequence (whole entry)": "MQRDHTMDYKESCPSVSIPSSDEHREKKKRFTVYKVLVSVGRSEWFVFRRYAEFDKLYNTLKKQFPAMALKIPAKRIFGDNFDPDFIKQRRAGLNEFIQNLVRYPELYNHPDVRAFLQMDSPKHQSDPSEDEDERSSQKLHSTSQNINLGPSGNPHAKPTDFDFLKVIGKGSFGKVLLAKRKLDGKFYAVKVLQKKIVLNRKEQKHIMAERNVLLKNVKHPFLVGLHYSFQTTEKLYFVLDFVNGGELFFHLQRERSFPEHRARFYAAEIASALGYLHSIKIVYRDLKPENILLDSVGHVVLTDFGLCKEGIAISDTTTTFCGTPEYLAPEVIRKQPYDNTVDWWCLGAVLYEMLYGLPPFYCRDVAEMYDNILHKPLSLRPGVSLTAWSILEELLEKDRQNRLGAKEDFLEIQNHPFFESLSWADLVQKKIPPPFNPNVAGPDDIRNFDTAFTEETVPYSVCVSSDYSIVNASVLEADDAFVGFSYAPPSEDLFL", "assay": "Inhibition of human full length SGK3 expressed in baculovirus assessed as substrate phosphorylation using fluorescence-labelled peptides as substrate at 1000 uM after 90 mins by microfluidic peptide phosphorylation assay"}, "[5]": {"test_system": "Fibroblast growth factor receptor 2 (Homo sapiens), P21802 [N549H]", "sequence (P21802 whole entry N549H, the tested form may be a part)": "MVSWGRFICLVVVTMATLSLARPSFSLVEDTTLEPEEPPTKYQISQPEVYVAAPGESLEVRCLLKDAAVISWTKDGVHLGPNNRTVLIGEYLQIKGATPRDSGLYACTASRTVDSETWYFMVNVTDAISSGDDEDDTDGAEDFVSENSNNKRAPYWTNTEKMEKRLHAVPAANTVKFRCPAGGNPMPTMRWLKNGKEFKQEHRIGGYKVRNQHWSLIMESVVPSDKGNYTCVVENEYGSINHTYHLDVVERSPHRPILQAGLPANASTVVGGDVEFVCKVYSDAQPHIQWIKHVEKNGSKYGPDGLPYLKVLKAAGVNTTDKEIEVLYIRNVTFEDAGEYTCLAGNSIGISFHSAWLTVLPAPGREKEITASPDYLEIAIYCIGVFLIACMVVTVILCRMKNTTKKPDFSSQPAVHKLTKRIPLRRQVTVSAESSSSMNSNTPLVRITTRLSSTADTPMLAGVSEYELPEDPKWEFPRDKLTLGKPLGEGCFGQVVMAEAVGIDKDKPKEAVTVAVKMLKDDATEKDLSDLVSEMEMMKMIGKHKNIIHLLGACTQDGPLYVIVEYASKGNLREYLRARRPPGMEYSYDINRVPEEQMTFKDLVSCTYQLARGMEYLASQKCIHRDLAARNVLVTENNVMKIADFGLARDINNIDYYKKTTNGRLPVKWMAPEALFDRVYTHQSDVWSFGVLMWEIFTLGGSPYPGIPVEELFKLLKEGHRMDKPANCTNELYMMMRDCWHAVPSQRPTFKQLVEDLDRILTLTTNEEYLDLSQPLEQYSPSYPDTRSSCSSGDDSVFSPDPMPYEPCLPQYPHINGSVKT", "assay": "Inhibition of human FGFR2 N549H mutant catalytic domain expressed in baculovirus assessed as substrate phosphorylation using fluorescence-labelled peptides as substrate at 1000 uM after 90 mins by microfluidic peptide phosphorylation assay"}, "[6]": {"test_system": "T3, Receptor-type tyrosine-protein kinase FLT3 (Homo sapiens), P36888 [D835Y]", "T3 sequence (whole entry)": "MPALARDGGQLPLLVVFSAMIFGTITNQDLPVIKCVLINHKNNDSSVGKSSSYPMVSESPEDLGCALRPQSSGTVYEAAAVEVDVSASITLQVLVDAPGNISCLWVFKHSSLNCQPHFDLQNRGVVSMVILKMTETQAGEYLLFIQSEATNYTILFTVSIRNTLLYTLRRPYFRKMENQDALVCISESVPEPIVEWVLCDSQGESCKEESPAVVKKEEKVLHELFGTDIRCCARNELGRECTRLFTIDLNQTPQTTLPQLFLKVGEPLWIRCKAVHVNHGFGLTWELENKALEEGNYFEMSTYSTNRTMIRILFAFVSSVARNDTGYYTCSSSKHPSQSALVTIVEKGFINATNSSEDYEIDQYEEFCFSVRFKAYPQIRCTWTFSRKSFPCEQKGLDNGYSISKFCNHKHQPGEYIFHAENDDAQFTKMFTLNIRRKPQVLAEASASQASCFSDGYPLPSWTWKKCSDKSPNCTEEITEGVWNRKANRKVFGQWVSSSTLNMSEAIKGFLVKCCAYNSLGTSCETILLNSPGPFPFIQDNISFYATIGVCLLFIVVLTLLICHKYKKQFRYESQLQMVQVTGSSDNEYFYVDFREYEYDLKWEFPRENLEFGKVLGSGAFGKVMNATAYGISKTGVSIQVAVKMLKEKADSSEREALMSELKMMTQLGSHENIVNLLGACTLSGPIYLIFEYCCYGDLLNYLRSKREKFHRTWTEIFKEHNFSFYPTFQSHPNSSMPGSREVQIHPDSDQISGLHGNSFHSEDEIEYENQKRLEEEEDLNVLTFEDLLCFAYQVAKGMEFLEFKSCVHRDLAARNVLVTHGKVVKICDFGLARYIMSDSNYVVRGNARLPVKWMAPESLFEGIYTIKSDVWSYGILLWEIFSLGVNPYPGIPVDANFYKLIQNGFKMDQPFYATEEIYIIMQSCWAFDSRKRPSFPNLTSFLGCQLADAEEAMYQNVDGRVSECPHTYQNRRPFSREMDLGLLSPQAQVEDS", "assay": "Inhibition of human FLT3 D835Y mutant catalytic domain expressed in baculovirus assessed as substrate phosphorylation using fluorescence-labelled peptides as substrate at 0.06 uM after 90 mins by microfluidic peptide phosphorylation assay"}, "[7]": {"biological_target": "Proto-oncogene tyrosine-protein kinase Src (Homo sapiens) (UniProt P12931)", "sequence (P12931 2-536 limits assumed)": "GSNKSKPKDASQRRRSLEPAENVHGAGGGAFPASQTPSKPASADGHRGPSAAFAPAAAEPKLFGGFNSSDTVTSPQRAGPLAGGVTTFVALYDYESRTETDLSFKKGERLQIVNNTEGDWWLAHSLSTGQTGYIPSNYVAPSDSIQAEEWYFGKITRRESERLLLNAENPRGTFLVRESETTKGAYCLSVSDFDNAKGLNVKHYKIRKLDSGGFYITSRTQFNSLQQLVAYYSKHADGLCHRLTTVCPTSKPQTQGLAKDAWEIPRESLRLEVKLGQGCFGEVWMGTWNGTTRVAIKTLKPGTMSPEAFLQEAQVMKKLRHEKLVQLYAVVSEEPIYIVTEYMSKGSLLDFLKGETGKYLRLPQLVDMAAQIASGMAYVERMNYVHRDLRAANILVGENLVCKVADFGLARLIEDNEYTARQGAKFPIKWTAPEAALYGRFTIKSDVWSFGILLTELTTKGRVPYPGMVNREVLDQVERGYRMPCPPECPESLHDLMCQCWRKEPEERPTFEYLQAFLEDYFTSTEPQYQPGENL", "assay": "Inhibition of human full length SRC expressed in baculovirus assessed as substrate phosphorylation using fluorescence-labelled peptides as substrate at 0.1 uM after 90 mins by microfluidic peptide phosphorylation assay"}, "[8]": {"biological_target": "Tyrosine-protein kinase Lyn (Homo sapiens) (UniProt P07948)", "sequence (P07948 2-512 limits assumed)": "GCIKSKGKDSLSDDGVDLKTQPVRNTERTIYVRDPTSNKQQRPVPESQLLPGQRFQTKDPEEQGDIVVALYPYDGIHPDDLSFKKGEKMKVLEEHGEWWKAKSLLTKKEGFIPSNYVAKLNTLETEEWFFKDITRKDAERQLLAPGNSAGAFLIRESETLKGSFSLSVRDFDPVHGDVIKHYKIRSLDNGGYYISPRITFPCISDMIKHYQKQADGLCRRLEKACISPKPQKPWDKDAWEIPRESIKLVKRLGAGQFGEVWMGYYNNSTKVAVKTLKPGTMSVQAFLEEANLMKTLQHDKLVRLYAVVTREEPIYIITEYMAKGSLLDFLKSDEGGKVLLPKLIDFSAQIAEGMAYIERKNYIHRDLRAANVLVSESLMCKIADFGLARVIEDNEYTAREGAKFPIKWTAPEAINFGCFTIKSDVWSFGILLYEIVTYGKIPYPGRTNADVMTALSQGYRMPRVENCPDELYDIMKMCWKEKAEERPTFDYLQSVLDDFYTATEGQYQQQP", "settings": "0.1 uM", "description": "Inhibition of human full length LYN expressed in baculovirus assessed as substrate phosphorylation using fluorescence-labelled peptides as substrate at 0.1 uM after 90 mins by microfluidic peptide phosphorylation assay"}, "[9]": {"biological_target": "Rho-associated protein kinase 2 (Homo sapiens) (UniProt O75116)", "sequence (O75116 whole entry, looked up, the tested form may be a part)": "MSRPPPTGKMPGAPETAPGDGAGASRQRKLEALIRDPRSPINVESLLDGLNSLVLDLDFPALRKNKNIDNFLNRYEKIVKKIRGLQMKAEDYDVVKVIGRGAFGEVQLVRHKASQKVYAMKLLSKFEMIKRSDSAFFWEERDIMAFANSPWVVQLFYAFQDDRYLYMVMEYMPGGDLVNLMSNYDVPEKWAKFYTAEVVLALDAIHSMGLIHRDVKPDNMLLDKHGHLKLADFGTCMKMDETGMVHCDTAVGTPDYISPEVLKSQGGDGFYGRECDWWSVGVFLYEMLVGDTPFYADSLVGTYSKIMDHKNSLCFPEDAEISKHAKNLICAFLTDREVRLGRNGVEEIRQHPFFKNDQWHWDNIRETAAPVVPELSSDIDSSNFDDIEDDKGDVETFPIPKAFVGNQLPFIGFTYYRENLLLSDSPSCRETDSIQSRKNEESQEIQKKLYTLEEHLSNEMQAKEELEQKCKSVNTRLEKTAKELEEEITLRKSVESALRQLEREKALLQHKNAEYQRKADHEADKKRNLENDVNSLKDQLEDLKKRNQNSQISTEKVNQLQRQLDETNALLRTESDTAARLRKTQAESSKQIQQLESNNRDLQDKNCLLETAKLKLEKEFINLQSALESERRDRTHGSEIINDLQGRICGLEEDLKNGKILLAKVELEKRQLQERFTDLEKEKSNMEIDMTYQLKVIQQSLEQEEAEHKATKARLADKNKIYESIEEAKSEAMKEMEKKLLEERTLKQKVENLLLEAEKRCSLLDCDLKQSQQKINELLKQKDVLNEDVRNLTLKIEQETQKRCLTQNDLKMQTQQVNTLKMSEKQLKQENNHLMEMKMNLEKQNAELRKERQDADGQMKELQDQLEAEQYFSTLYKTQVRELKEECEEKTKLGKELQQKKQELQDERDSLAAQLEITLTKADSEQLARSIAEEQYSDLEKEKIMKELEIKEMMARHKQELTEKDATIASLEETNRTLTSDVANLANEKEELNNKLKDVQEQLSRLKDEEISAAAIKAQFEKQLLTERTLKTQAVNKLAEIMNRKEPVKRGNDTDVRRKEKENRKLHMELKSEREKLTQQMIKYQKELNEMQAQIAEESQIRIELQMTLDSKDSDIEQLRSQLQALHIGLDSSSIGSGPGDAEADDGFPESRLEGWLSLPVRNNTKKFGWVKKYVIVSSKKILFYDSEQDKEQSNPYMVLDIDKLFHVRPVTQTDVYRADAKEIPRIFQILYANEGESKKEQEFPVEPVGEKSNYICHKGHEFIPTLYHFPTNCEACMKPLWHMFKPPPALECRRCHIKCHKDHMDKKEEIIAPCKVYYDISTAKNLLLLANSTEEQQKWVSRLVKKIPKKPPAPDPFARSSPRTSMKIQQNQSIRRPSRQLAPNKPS", "assay": "Inhibition of human ROCK2 catalytic domain expressed in baculovirus assessed as substrate phosphorylation using fluorescence-labelled peptides as substrate at […] after 90 mins by microfluidic peptide phosphorylation assay"}, "[10]": {"biological_target": "Dual specificity tyrosine-phosphorylation-regulated kinase 1A (Rattus norvegicus) (UniProt Q63470)", "assay": "Inhibition of rat full length DYRK1a expressed in Escherichia coli cell assessed as substrate phosphorylation using fluorescence-labelled peptides as substrate at 70 uM after 90 mins by microfluidic peptide phosphorylation assay"}, "[11]": {"biological_target": "MAP kinase p38 (Homo sapiens) (UniProt O15264+Q15759+Q16539+P53778)", "assay": "Inhibition of human full length p38 beta2 expressed in Escherichia coli cell assessed as substrate phosphorylation using fluorescence-labelled peptides as substrate at 70 uM after 90 mins by microfluidic peptide phosphorylation assay"}},
  "data": [
    {"smiles": "NCCc1ccc(-c2ncnc3[nH]cnc23)cc1", "values": [
      {"measurement": "inhibition", "setting": "[1]", "result": 69.5, "unit": "%"}
    ]},
    {"smiles": "Clc1ccc(C2(c3ccc(-c4ncnc5[nH]cnc45)cc3)CCNCC2)cc1", "values": [
      {"measurement": "inhibition", "setting": "[2]", "result": 55, "unit": "%"},
      {"measurement": "inhibition", "setting": "[3]", "result": 7, "unit": "%"}
    ]},
    {"smiles": "c1cnc2[nH]ccc2c1", "values": [
      {"measurement": "inhibition", "setting": "[4]", "result": 80.5, "unit": "%"},
      {"measurement": "inhibition", "setting": "[5]", "result": 42, "unit": "%"}
    ]},
    {"smiles": "NC1(Cc2ccc(Cl)cc2)CCN(c2ncnc3[nH]ccc23)CC1", "values": [
      {"measurement": "inhibition", "setting": "[6]", "result": 0, "unit": "%"}
    ]},
    {"smiles": "C[C@H](CN(C)C)Oc1nc(Nc2cc3cccc(Cl)c3cn2)cnc1C#N", "values": [
      {"measurement": "inhibition", "setting": "[7]", "result": 3, "unit": "%"},
      {"measurement": "inhibition", "setting": "[8]", "result": 0, "unit": "%"}
    ]},
    {"smiles": "COC(=O)c1cnc(Nc2cnc(C#N)cn2)cc1NCC1CCNCC1", "values": [
      {"measurement": "inhibition", "setting": "[9]", "result": 2, "unit": "%"}
    ]},
    {"smiles": "CNCc1ccc(-c2ncnc3[nH]cnc23)cc1", "values": [
      {"measurement": "inhibition", "setting": "[10]", "result": 61, "unit": "%"},
      {"measurement": "inhibition", "setting": "[11]", "result": 1.5, "unit": "%"}
    ]}
  ]
}
